Source: US20180099950A1, “APOPTOSIS SIGNAL-REGULATING KINASE INHIBITOR” (Gilead Sciences, Inc., priority 2012, published 2018)
Read-outs that look alike come from different tables or passages of the source.

Experiments:
[1] = Rat pharmacokinetics, 1 mg/kg IV infusion and 5.0 mg/kg PO; assay type: in vivo
Procedure: Pharmacokinetics of Test Compounds following a 1 mg/kg IV infusion and 5.0 mg/kg PO dose in rats
For IV administration the test compound was formulated in 60:40 PEG 400:water with 1 equivalent HCl at 0.5 mg/mL. […] For PO (oral) administration, the test compound was formulated in 5/75/10/10 ethanol/PG/solutol/water at 2.5 mg/mL.
IV and PO dosing groups each consisted of 3 male SD rats. […] The animals were fasted overnight prior to dose administration and up to 4 hr after dosing.
For the IV infusion group, the test compound was administered by intravenous infusion over 30 minutes. The rate of infusion was adjusted according to the body weight of each animal to deliver a dose of 1 mg/kg at 2 mL/kg. For the oral dosing group, the test article was administered by oral gavage at 2 mL/kg for a dose of 5.0 mg/kg.
Serial venous blood samples (approximately 0.4 mL each) were taken at specified time points after dosing from each animal. The blood samples were collected into Vacutainer™ tubes (Becton-Disckinson Corp, N.J., USA) containing EDTA as the anti-coagulant and were immediately placed on wet ice pending centrifugation for plasma.
An LC/MS/MS method was used to measure the concentration of test compound in plasma.
Non-compartmental pharmacokinetic analysis was performed on the plasma concentration-time data.

[2] = molecular target: T1, CYP3A4 (Homo sapiens, UniProt P08684); assay: Cytochrome P450 inhibition, CYP3A4 (midazolam and testosterone); assay type: in vitro ADME
T1 construct: from tissue; host or cells: human liver microsomes
T1 sequence (P08684 whole entry): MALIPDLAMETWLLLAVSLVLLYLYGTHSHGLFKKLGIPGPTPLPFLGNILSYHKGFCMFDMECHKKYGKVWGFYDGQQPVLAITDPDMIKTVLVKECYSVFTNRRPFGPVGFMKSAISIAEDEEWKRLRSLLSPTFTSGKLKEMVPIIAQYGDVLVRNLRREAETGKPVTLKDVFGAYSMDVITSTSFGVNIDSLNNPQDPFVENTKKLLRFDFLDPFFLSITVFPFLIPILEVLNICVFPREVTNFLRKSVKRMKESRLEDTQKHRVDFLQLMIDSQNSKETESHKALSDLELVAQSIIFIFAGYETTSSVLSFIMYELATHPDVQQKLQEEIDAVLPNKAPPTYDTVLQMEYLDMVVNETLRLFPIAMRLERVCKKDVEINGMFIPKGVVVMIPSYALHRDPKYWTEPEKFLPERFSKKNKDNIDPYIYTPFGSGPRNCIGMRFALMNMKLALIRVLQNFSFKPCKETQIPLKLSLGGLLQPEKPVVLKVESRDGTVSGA

[3] = Determination of percent of compound bound to plasma (equilibrium dialysis); assay type: in vitro ADME; settings: human
Description: Sample vials were weighed and recorded.

[4] = pH 7.4, fraction unbound, comparative table, read-out: fu

Row | SMILES | number of times the compound of formula (I) shows an improvement over the indicated compound: % F in rats ([1]; rat, in vivo) | number of times the compound of formula (I) shows an improvement over the indicated compound: CL in rats ([1]; rat, in vivo) | number of times the compound of formula (I) shows an improvement over the indicated compound: Vss in rats ([1]; rat, in vivo) | number of times the compound of formula (I) shows an improvement over the indicated compound: t½ in rats ([1]; rat, in vivo) | t½ ([1]; rats) [h] | CYP3A4 IC50/PBAdj.EC50 value of compound of formula (I) higher than that of the named compound [2] [times] | number of times the compound of formula (I) shows an improvement over the indicated compound: Cyp3A4 IC50 (TST) [2] | fraction unbound at 3 h, 2 μM [3, 4] | clearance ([1]; male, SD, rat, plasma, intravenous, 1 mg/kg, rats) [mL/min/kg] | Vd ([1]; male, SD, rat, plasma, intravenous, 1 mg/kg, rats, read-out: Vss) [L/kg] | bioavailability ([1]; male, SD, rat, plasma, rats, 5.0 mg/kg PO, read-out: oral bioavailability (% F)) [%] | half-life ([1]; male, SD, rat, plasma, rats, read-out: t½ (converted)) [h] | IC50 ([2]; testosterone substrate, comparative table, read-out: Cyp3A4 IC50 Testesterone (TST))) [µM] | fraction unbound at 3 h, 2 μM ([3]; pH 7.4, human plasma, 2 uM, 3 hours at 37 C, read-out: percent unbound)
1 | CC(C)n1cnnc1-c1cccc(NC(=O)c2cccc(-n3cnc(C4CC4)c3)c2)n1 [Compound A] | (6.8X) | (2.7X) | (3.2X) | (8.6X) | 0.59 | 43 | (10X) | 0.048 | – | – | – | – | – | –
2 | Cc1ccc(C(=O)Nc2cccc(-c3nncn3C(C)C)n2)cc1-n1cnc(C2CC2)c1 [Compound B] | (1.5X) | (3.6X) | – | (3.9X) | – | 92 | (2.8X) | 0.032 | 6.5 | 0.54 | 50 | 1.3 | 4 | –
3 | Cc1cc(F)c(C(=O)Nc2cccc(-c3nncn3C(C)C)n2)cc1-n1cnc(C2CC2)c1 [compound of formula (I), 5-(4-cyclopropyl-1H-imidazol-1-yl)—N-(6-(4-isopropyl-4H-1,2,4-triazol-3-yl)pyridin-2-yl)-2-fluoro-4-methylbenzamide] | – | – | – | – | – | – | – | 0.12 | – | – | – | – | – | 0.119
